Earlier results on one substance are cited in patent US6197535A, “Methods for purifying and assaying a conus γ-carboxylase” (University of Utah Research Foundation, priority 1999, dated 2001).

This data set has as its system N-methyl-D-aspartate receptor. Conditions: cited from earlier work.

For Conantokin-G, the “inhibition of the N-methyl-D-aspartate receptor” value was “inhibits”.
